Entries after “also recorded” stand apart in the source; their conditions may differ.
Tests used:
WNT protein = assay: Mouse hair follicle culture, WNT protein immunostaining; type: cell-based; conditions: 5 days culture, FIG. 13c
Ki-67 protein [1] = assay: Mouse hair follicle culture, Ki-67 immunostaining; type: cell-based; conditions: 5 days culture, FIG. 13d
β-catenin [2] = assay: Mouse hair follicle culture, β-catenin immunostaining; type: cell-based; conditions: 5 days culture, FIG. 13b
β-catenin [3] = assay: Western blot of β-catenin in HaCaT keratinocytes; type: cell-based; conditions: FIG. 6a; for expression level of β-catenin: 5 hr, single treatment; for β-catenin expression in the presence of DKK-1: treatment with both DKK-1 and peptide
Protocol: (§1) HaCaT kerationcytes cultured for 48 hr were incubated with the peptides synthesized in preparation Example 1 for 5 hr. The expression level of β-catenin was examined, which is an essential signal molecule to promote hair growth as a representative signaling of WNT protein. The amount of β-catenin was measured by Western blot analysis using an antibody against β-catenin (SantaCruz, USA). In addition, it was observed by an immunohistochemical assay using the same whether β-catenin is translocated into a nucleus. […] Besides, […] activities were also observed in cytosol as β-catenin is still present in cytosol (FIG. 6b).

[4] = test system: Hair follicle of Balb/C mouse; assay: Mouse hair follicle culture, H&E staining; type: cell-based; conditions: 5 days culture, FIG. 13a
Protocol: Hair follicle of Balb/C mouse hair was dissected with a surgical mess and washed with ethanol, followed by additionally washing with PBS and DMEM culture solution. Hereafter, hair follicles were incubated with 5 μg/ml of each peptide complex dissolved in DMEM culture solution, and cultured under 5% CO2 for 5 days at 37° C. After 5 days-culture, hair follicles were prepared as a paraffin block and each tissue treated with control, peptide complex, DKK-1, and DKK-1 and peptide complex was stained and compared using H&E staining (FIGS. 13a-13d).

fibronectin = assay: Fibronectin ELISA in NIH3T3 fibroblasts; type: cell-based; conditions: NIH3T3, FIG. 9b
Protocol: To verify whether the peptides synthesized in preparation Example 1 enhances the expression of fibronectin as a WNT target protein, NIH3T3 fibroblasts (4×10^3 cells) was added to each well of 96-well plates and cultured under 5% CO2 for 24 hr at 37° C. After 24-hr culture, the medium was changed with a fresh medium without serum and cells were treated with empty sample (for normalization), three peptides synthesized (1 μg/ml) and peptide complex (1 μg/ml) aseptically dissolved in 10% DMSO for 3 hr, 10 hr, 24 hr or 48 hr under the same conditions as described above. After 72 hr incubation, the cell culture was collected and the expression level of fibronectin was measured using Fibronectin ELISA kit (R&D systems, USA).

NIH3T3 fibroblasts = assay: SRB colorimetric assay of cell growth in NIH3T3 fibroblasts; type: cell-based
Protocol: (§2) In order to evaluate three peptides prepared in Preparation Examples 1-2 whether they have similar activities of growth factor, SRB (Sulforhodamine B; Sigma-Aldrich) colorimetric assay was carried out using HaCaT kerationcytes (Korean Cell Line Bank) and NIH3T3 fibroblasts (Korean Cell Line Bank) according to Rizzino et al. method (Rizzino, et al. Cancer Res., 48: 4266 (1988)).
(§3) HaCaT ketatinocytes and NIH3T3 fibroblasts were cultured in 250 ml-flasks containing EMEM (Eagle's minimal essential media; Gibco, USA) supplemented with 10% FBS (fetal bovine serum; Sigma). Cells cultured were treated with 1% trypsin solution to detach cells from the bottom of culture flasks and centrifuged to collect cell pellets. After cells were resuspended in EMEM not containing FBS, its aliquot (3×10^3 cells) was added to each well of 96-well plates and cultured under 5% CO2 for 24 hr at 37° C. After 24-hr culture, the medium was changed with a fresh medium without serum and cells were incubated with empty sample (for normalization), three peptides synthesized (1 ng/ml, 10 ng/ml, 100 ng/ml, 1 μg/ml and 10 μg/ml) and peptide complex (1 μg/ml) aseptically dissolved in 10% DMSO for 72 hr under the same conditions as described above. […] In addition, absorbance at 590 nm was measured to analyze cell viability. […]

β-catenin [5] = assay: Immunohistochemical assay of β-catenin translocation into nucleus in HaCaT keratinocytes; type: cell-based; conditions: FIG. 6b
Protocol: as §1

C57BL/6 mouse = assay: Mouse hair growth, topical nanosome on back skin; type: in vivo; conditions: twice every day
Description: The peptide synthesized in Preparation Example 1 was formulated into nanosome. Afterwards, the back of C57BL/6 mouse was partially removed and then the skin was topically administered with the nanosome twice every day for 15 days.

Ki-67 protein [6] = assay: Ki-67 immunostaining (cell proliferation marker) in keratinocytes; type: cell-based; conditions: FIG. 4
HaCaT kerationcytes = assay: SRB colorimetric assay of cell growth in HaCaT keratinocytes; type: cell-based; conditions: 72 hr
Protocol: as §2, §3

Substance | expression of WNT protein in hair follicle, single treatment (WNT protein) | expression of Ki-67 protein in hair follicle, single treatment (Ki-67 protein [1]) | expression of β-catenin in hair follicle, single treatment (β-catenin [2]) | expression level of β-catenin (β-catenin [3]; FIG. 8) | hair follicles (H&E), single treatment [4] | fibronectin expression, DKK-1 alone (fibronectin) | proliferation and cell shape under a microscope, fibroblasts (NIH3T3 fibroblasts; 72 hr, FIG. 3) | growth of fibroblasts (NIH3T3 fibroblasts; NIH3T3, 72 hr, 1 ng/ml to 10 μg/ml, FIG. 2b) | expression level of β-catenin (β-catenin [3]; FIG. 8, listed as the present peptide) | β-catenin expression in the presence of DKK-1 (β-catenin [3]) | β-catenin expression in the presence of DKK-1 (β-catenin [3]; listed as the present peptide) | translocation of β-catenin to nucleus / β-catenin activity by immunostaining (β-catenin [5]) | translocation of β-catenin to nucleus / β-catenin activity by immunostaining (β-catenin [5]; listed as the present peptide) | hair growth on mouse back skin at 9 days-treatment (C57BL/6 mouse; C57BL/6) | amount of hair in mouse back skin at 15 days-treatment compared with control group (C57BL/6 mouse; C57BL/6, FIG. 12) | expression of Ki-67 protein in keratinocytes (Ki-67 protein [6]) | proliferation and cell shape under a microscope, keratinocytes (HaCaT kerationcytes; FIG. 3) | growth of keratinocytes (HaCaT kerationcytes; HaCaT, 1 ng/ml to 10 μg/ml, FIG. 2a) | expression level of fibronectin in treatment with both DKK-1 and peptide (fibronectin; listed as the present peptide)
DKK-1: a WNT inhibitor and a β-catenin signaling inhibitor, hair loss gene | inhibited | suppressed | inhibited | reduced | degenerated | inhibited | – | – | – | – | – | – | – | – | – | – | – | – | –
H-RQTRVQRCHC-OH (cysteine pairing not given here) [the peptide of the present invention] | – | – | – | significantly elevated | – | – | promotes proliferation of keratinocytes and fibroblasts, and changes their morphological shapes | notably increases the growth | enhancement of β-catenin expression; also recorded: induces elevated activity of β-catenin | β-catenin activity is observed | re-increase of the expression of β-catenin; also recorded: restored and enhanced | elevated activity of β-catenin | contributes to translocation of β-catenin from cytosol to nucleus | growing hair was observed | much significantly enhanced | remarkably enhanced | promotes proliferation of keratinocytes and fibroblasts, and changes their morphological shapes | notably increases the growth of keratinocytes | restored and enhanced; also recorded: recovered
